# Results reported in patent publication US20240270741A1 (Cogent Biosciences, Inc., priority 2023, published 2024).
# Target: FGFR2 (Homo sapiens, UniProt P21802)
# Assay: FGFR wild type enzyme assay (HTRF KinEASE-TK), FGFR2
# Settings: Enz FGFR2 (nM), FGFR2 wild type enzyme
# FGFR2, sequence (P21802 399-821 limits assumed): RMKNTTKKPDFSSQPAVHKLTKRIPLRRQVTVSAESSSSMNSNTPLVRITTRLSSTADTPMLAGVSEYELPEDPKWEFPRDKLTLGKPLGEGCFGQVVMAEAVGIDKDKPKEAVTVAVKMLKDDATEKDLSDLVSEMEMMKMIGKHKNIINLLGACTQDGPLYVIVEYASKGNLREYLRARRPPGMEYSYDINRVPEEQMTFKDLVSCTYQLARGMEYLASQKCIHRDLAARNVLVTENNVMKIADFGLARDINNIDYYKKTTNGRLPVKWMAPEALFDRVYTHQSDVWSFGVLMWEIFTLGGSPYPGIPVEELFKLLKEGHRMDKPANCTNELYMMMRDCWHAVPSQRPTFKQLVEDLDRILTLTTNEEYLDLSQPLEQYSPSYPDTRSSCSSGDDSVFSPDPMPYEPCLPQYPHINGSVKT
row,IC50 [nM],Compound
1,2,"Cc1c(-c2cc(Sc3ncccc3F)c3c(C#N)cnn3c2)cnn1[C@H]1CC[C@@H](CO)CC1 [Example 281, 4-((3-fluoropyridin-2-yl)thio)-6-(1-((1s,4s)-4-(hydroxymethyl)cyclohex-yl)-5-methyl-1H-pyrazol-4-yl)pyrazolo[1,5-a]pyridine-3-carbonitril]"
2,1,"Cc1c(-c2cc(Sc3ncccc3F)c3c(C#N)cnn3c2)cnn1[C@H]1CC[C@@](C)(N)CC1 [Example 282, 6-(1-((1s,4s)-4-amino-4-methylcyclohexyl)-5-methyl-1H-pyrazol-4-yl)-4-((3-fluoropyridin-2-yl)thio)pyrazolo[1,5-a]pyridine-3-carbonitrile]"
3,0.4,"Cc1c(-c2cc(Sc3ccccc3C#N)c3c(C#N)cnn3c2)cnn1[C@H]1CC[C@H](N(C)CCO)CC1 [Example 284, 4-((2-cyanophenyl)thio)-6-(1-((1r,4SR)-4-((2-hydroxyethyl)(methyl)ami-no)cyclohexyl)-5-methyl-1H-pyrazol-4-yl)pyrazolo[1,5-a]pyridine-3-carbonitrile]"
4,1,"Cc1c(-c2cc(Sc3ccccc3C#N)c3c(C#N)cnn3c2)cnn1[C@H]1CC[C@@H](NS(C)(=O)=O)CC1 [Example 285, N-((1s,4s)-4-(4-(3-cyano-4-((2-cyanophenyl)thio)pyrazolo [1,5-a]pyridin-6-yl)-5-methyl-1H-pyrazol-1-y)cyclohexyl)methane-sulfonamide]"
5,0.4,"Cc1c(-c2cc(Sc3ccccc3C#N)c3c(C#N)cnn3c2)cnn1[C@H]1CC[C@@H](NCc2ccccn2)CC1 [Example 287, 4-((2-cyanophenyl)thio)-6-(5-methyl-1-((1s,4s)-4-((pyridin-2-ylmethyl)amino)cyclohex-yl)-1H-pyrazol-4-yl)pyrazolo[1,5-a]pyridine-3-carbonitrile]"
6,1,"Cc1c(-c2cc(Sc3ccc(F)cc3C#N)c3c(C#N)cnn3c2)cnn1[C@H]1CC[C@@H](O)CC1 [Example 288, 4-((2-cyano-4-fluorophenyl)thio)-6-(1-((1s,4s)-4-hydroxycyclohexyl)-5-methyl-1H-pyrazol-4-yl)pyrazolo[1,5-a]pyridine-3-carbonitrile]"
7,5,"Cc1c(-c2cc(Sc3ccc(F)cn3)c3c(C#N)cnn3c2)cnn1[C@H]1CC[C@@H](O)CC1 [Example 290, 4-((5-fluoropyridin-2-yl)thio)-6-(1-((1s,4s)-4-hydroxycyclohexyl)-5-methyl-1H-pyrazol-4-yl)pyrazolo[1,5-a]pyridine-3-carbonitrile]"
8,3,"Cc1c(-c2cc(Sc3ccc(F)cn3)c3c(C#N)cnn3c2)cnn1[C@H]1CC[C@@](C)(N)CC1 [Example 291, 6-(1-((1s,4s)-4-amino-4-methylcyclohexyl)-5-methyl-1H-pyrazol-4-yl)-4-((5-fluoropyridin-2-yl)thio)pyrazolo[1,5-a]pyridine-3-carbonitrile]"
9,3,"CN[C@]1(C)CC[C@H](n2ncc(-c3cc(Sc4ccc(F)cn4)c4c(C#N)cnn4c3)c2C)CC1 [Example 292, 4-((5-fluoropyridin-2-yl)thio)-6-(5-methyl-1-((1s,4s)-4-methyl-4-(methylamino)cyclohexyl)-1H-pyrazol-4-yl)pyrazolo[1,5-a]pyridine-3-carbonitrile]"
10,1,"N#Cc1cnn2cc(-c3cnn([C@H]4CC[C@@H](O)CC4)c3)cc(Sc3ncccc3F)c12 [Example 293, 4-((3-fluoropyridin-2-yl)thio)-6-(1-((1s,4s)-4-hydroxycyclohexyl)-1H-pyrazol-4-yl)pyrazolo[1,5-a]pyridine-3-carbonitrile]"
11,1,"CN[C@]1(C)CC[C@H](n2ncc(-c3cc(Sc4ncccc4F)c4c(C#N)cnn4c3)c2C)CC1 [Example 295, 4-((3-fluoropyridin-2-yl)thio)-6-(5-methyl-1-((1s,4s)-4-methyl-4-(methylamino)cylcohexyl)-1H-pyrazol-4-yl)pyrazolo[1,5-a]pyridine-3-carbonitrile]"
12,2,"Cc1c(-c2cc(Sc3ncccc3F)c3c(C#N)cnn3c2)cnn1[C@@H]1CC[C@H](O)[C@H](O)C1 [Example 296, 6-(1-((1R,3R,4S)-3,4-dihydroxycyclohexyl)-5-methyl-1H-pyrazol-4-yl)-4-((3-fluoropyridin-2-yl)thio)pyrazolo[1,5-a]pyridine-3-carbonitrile]"
13,4,Cc1c(-c2cc(Sc3ccccn3)c3c(C#N)cnn3c2)cnn1[C@H]1CC[C@@H](O)CC1 [Example 302]
14,6,"CC(=O)N1CCC(n2ncc(-c3cc(Sc4ccc(F)cn4)c4c(C#N)cnn4c3)c2C)CC1 [Example 306, 6-(1-(1-acetylpiperidin-4-yl)-5-methyl-1H-pyrazol-4-yl)-4-((5-fluoropyridin-2-yl)thio)pyrazolo[1,5-a]pyridine-3-carbonitrile]"

# The next lines start with the compound.
row,Compound,IC50 [nM]
1,"Cc1c(-c2cc(Sc3ncccc3F)c3c(C#N)cnn3c2)cnn1[C@@H]1CCNC[C@H]1O [Example 277, 4-((3-fluoropyridin-2-yl)thio)-6-(1-((3R,4R)-3-hydroxypiperidin-4-yl)-5-methyl-1H-pyrazol-4-yl)pyrazolo[1,5-a]pyridine-3-carbonitrile]",15
2,"CC(=O)N1CCO[C@@H](Cn2ncc(-c3cc(Sc4ccccc4C#N)c4c(C#N)cnn4c3)c2C)C1 [Example 278, (R)-6-(1-((4-acetylmorpholin-2-yl)methyl)-5-methyl-1H-pyrazol-4-yl)-4-((2-cyanophenyl)thio)pyrazolo [1,5-a]pyridine-3-carbonitrile]",4
3,"CC(=O)N1CCO[C@H](Cn2ncc(-c3cc(Sc4ccccc4C#N)c4c(C#N)cnn4c3)c2C)C1 [Example 279, (S)-6-(1-((4-acetylmorpholin-2-yl)methyl)-5-methyl-1H-pyrazol-4-yl)-4-((2-cyanophenyl)thio)pyrazolo [1,5-a]pyridine-3-carbonitrile]",3
4,"CC(=O)N1CCO[C@@H](Cn2ncc(-c3cc(Sc4ncccc4F)c4c(C#N)cnn4c3)c2C)C1 [Example 280, (R)-6-(1-((4-acetylmorpholin-2-yl)methyl)-5-methyl-1H-pyrazol-4-yl)-4-((3-fluoropyridin-2-yl)thio)pyrazolo[1,5-a]pyridine-3-carbonitrile]",12
5,"Cc1c(-c2cc(Sc3ccccc3C#N)c3c(C#N)cnn3c2)cnn1C1CCN(Cc2ncccn2)CC1 [Example 286, 4-((2-cyanophenyl)thio)-6-(5-methyl-1-(1-(pyrimidin-2-ylmethyl)piperidin-4-yl)-1H-pyrazol-4-yl)pyrazolo[1,5-a]pyridine-3-carbonitrile]",1
6,"Cc1c(-c2cc(Sc3ccc(F)cc3C#N)c3c(C#N)cnn3c2)cnn1[C@@H]1C[C@H]2CC[C@@H](C1)N2C [Example 289, 4-((2-cyano-4-fluorophenyl)thio)-6-(5-methyl-1-((1R,3s,5S)-8-methyl-8-azabicyclo[3.2.1]octan-3-yl)-1H-pyrazol-4-yl)pyrazolo[1,5-a]pyridine-3-carbonitrile]",0.5
7,"N#Cc1ccccc1Sc1cc(-c2cnn([C@H]3CC[C@@H](O)CC3)c2)cn2ncc(C#N)c12 [Example 294, 4-((2-cyanophenyl)thio)-6-(1-((1s,4s)-4-hydroxycyclohexyl)-1H-pyrazol-4-yl)pyrazolo[1,5-a]pyridine-3-carbonitrile]",0.5
8,"Cc1c(-c2cc(Sc3ccccc3C#N)c3c(C#N)cnn3c2)cnn1[C@H]1CC[C@@](C)(N)CC1 [Example 297, 6-[1-(4-amino-4-methyl-cyclohexyl)-5-methyl-pyrazol-4-yl]-4-(2-cyanophenyl) sulfanylpyrazolo[1,5-a]pyridine-3-carbonitrile]",0.3
9,"CN(C)[C@H]1CC[C@@H](n2cc(-c3cc(Sc4ccccc4C#N)c4c(C#N)cnn4c3)cn2)CC1 [Example 298, 4-((2-cyanophenyl)thio)-6-(1-((1s,4s)-4-(dimethylamino)cyclohex-yl)-1H-pyrazol-4-yl)pyrazolo[1,5-a]pyridine-3-carbonitrile]",0.5
10,"CC(=O)N[C@H]1CC[C@@H](n2ncc(-c3cc(Sc4ccc(F)cc4C#N)c4c(C#N)cnn4c3)c2C)CC1 [Example 299, N-((1s,4S)-4-(4-(3-cyano-4-((2-cyano-4-fluorophenyl)thio)pyrazolo [1,5-a]pyridin-6-yl)-5-methyl-1H-pyrazol-1-yl)cyclohexyl)acetamide]",1
11,"Cc1c(-c2cc(Sc3ccc(F)cc3C#N)c3c(C#N)cnn3c2)cnn1[C@H]1C[C@H]2CC[C@@H](C1)N2C [Example 300, 4-((2-cyano-4-fluorophenyl)thio)-6-(5-methyl-1-((1R,3r,5S)-8-methyl-8-azabicyclo[3.2.1]octan-3-yl)-1H-pyrazol-4-yl)pyazolo[1,5-a]pyridine-3-carbonitrile]",1
12,"Cc1c(-c2cc(Sc3ccc(F)cc3C#N)c3c(C#N)cnn3c2)cnn1[C@H]1CC[C@H](NC(=O)CO)CC1 [Example 301, N-((1r,4r)-4-(4-(3-cyano-4-((2-cyano-4-fluorophenyl)thio)pyrazolo [1,5-a]pyridin-6-yl)-5-methyl-1H-pyrazol-1-yl)cyclohexyl)-2-hydroxyacetamide]",1
13,"Cc1nn(C2CCN(C)CC2)c(C)c1-c1cc(Sc2ncccc2F)c2c(C#N)cnn2c1 [Example 303, 6-(3,5-dimethyl-1-(1-methylpiperidin-4-yl)-1H-pyrazol-4-yl)-4-((3-fluoropyridin-2-yl)thio)pyrazolo[1,5-a]pyridine-3-carbontirile]",6
14,"Cc1nn([C@H]2CC[C@@H](N(C)C)CC2)c(C)c1-c1cc(Sc2ncccc2F)c2c(C#N)cnn2c1 [Example 304, 6-(1-((1s,4s)-4-(dimethylamino)cyclohex-yl)-3,5-dimethyl-1H-pyrazol-4-yl)-4-((3-fluoropyridin-2-yl)thio)pyrazolo[1,5-a]pryidine-3-carbonitrile]",3.5
15,"Cc1nn(C2CCN(C)CC2)c(C)c1-c1cc(Sc2ccccc2C#N)c2c(C#N)cnn2c1 [Example 305, 4-((2-cyanophenyl)thio)-6-(3,5-dimethyl-1-(1-methylpiperidin-4-yl)-1H-pyrazol-4-yl)pyrazolo[1,5-a]pyridine-3-carbonitrile]",5
16,"Cc1c(-c2cc(Sc3ccc(F)cn3)c3c(C#N)cnn3c2)cnn1[C@H]1CCCNC1 [Example 307, (S)-4-((5-fluoropyridin-2-yl)thio)-6-(5-methyl-1-(piperidin-3-yl)-1H-pyrazol-4-yl)pyrazolo[1,5-a]pyridine-3-carbonitrile]",5
